From ChEMBL document CHEMBL1149926, “Synthesis of 7-substituted androstenediones by a 1,4-conjugate addition approach” (Bioorg Med Chem Lett, 1995)

Biological target: T1, Aromatase (Homo sapiens, UniProt P11511)
T1 sequence (P11511 whole entry): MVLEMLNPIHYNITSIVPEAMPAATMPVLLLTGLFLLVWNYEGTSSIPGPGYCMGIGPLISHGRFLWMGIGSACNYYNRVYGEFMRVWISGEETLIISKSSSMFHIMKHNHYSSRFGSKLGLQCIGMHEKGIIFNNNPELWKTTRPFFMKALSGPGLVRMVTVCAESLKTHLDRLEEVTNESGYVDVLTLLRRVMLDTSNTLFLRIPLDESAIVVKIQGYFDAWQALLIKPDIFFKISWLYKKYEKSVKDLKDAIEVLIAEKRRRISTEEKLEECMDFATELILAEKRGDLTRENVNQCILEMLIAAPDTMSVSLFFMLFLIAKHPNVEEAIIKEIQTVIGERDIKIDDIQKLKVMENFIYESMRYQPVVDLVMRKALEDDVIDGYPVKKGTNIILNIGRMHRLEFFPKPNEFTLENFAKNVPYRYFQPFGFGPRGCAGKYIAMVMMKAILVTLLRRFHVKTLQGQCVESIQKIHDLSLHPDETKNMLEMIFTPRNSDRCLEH
Assay: Inhibition of aromatase cytochrome P450 19A1

Row | Compound | Ki
1 | C[C@]12C=CC(=O)C=C1C[C@@H](Sc1ccc(N)cc1)[C@@H]1[C@@H]2CC[C@]2(C)C(=O)CC[C@@H]12 | 10 nM
2 | C[C@]12CCC(=O)C=C1C[C@@H](CCc1ccccc1)[C@@H]1[C@@H]2CC[C@]2(C)C(=O)CC[C@@H]12 | 16.5 nM
3 | C[C@]12CCC(=O)C=C1C[C@@H](Cc1ccccc1)[C@@H]1[C@@H]2CC[C@]2(C)C(=O)CC[C@@H]12 | 13.1 nM
